From patent US20240383852A1, “ANTI-VIRAL COMPOUNDS” (INFEX Therapeutics Limited, priority 2021, published 2024)
Counter-ions that a name gives are not always drawn. Like-named read-outs stand apart in the source and are kept apart here.

Tests used:
[1] = system: human Hep G2 cells (ATCC HB-8065); assay: Cytotoxicity in Hep G2 cells (CellTiter-Glo); type: cell-based
SARS-CoV-2 PLpro = molecular target: T1, SARS-CoV-2 PLpro (Severe acute respiratory syndrome coronavirus 2, UniProt P0DTD1); assay: biochemical
T1 construct: containing 60 nM papain-like protease

SARS-CoV-2 = assay: Anti-viral potency in VERO E6 cells (cytopathic viral activity, crystal violet); type: cell-based; settings: Severe acute respiratory syndrome coronavirus 2, Vero C1008, 48 h, read-out: SARS-COV-2 EC50 (μM)
[2] = Hep G2 cells, 100 μM test article, 24-hour exposure
[3] = 60 nM papain-like protease, 50 μM Z-RLRGG-AMC, pH 7.5, 37° C., read-out: SARS-CoV-2 PLpro IC50

SMILES	% Cell Viability [1, 2] [%]	IC50 (SARS-CoV-2 PLpro; [3]) [µM]	EC50 (SARS-CoV-2) [µM]	% Cell Viability ([1]; human, 24 h, 100 μM) [%]	IC50 (SARS-CoV-2 PLpro) [µM]
COc1ccc([C@@H](C)NC(=O)c2cc(N3CC4CN(C)CC4C3)ccc2C)cc1OC (stereo partly drawn) [Example 9, N-[(1R)-1-(3,4-Dimethoxyphenyl)ethyl]-2-methyl-5-(2-methyl-1,3,3a,4,6,6a-hexahydropyrrolo[3,4-c]pyrrol-5-yl)benzamide]	96.5	< 5	< 15	–	–
COc1ccc([C@@H](C)NC(=O)c2cc(N3C[C@H]4CC[C@@H](C3)N4C)ccc2C)cc1OC [Example 11, N-[(1R)-1-(3,4-Dimethoxyphenyl)ethyl]-2-methyl-5-[(1R,5S)-8-methyl-3,8-diazabicyclo[3.2.1]octan-3-yl]benzamide]	–	–	< 5	95.6	< 2
Cc1ccc(N2CCN(C)CC2)cc1C(=O)N[C@H](C)c1cccc(-c2cn(C)nc2C)c1 [Example 61, N-[(1R)-1-[3-(1,3-Dimethylpyrazol-4-yl)phenyl]ethyl]-2-methyl-5-(4-methylpiperazin-1-yl)benzamide]	69.2	< 2	< 5	–	–
CCn1cc(-c2cccc([C@@H](C)NC(=O)c3cc(N4CCN(C)CC4)ccc3C)c2)cn1 [Example 64, N-[(1R)-1-[3-(1-Ethylpyrazol-4-yl)phenyl]ethyl]-2-methyl-5-(4-methylpiperazin-1-yl)benzamide]	78.6	< 2	< 5	–	–
Cc1ccc(N2CCNCC2)cc1C(=O)N[C@H](C)c1cccc(-c2cnn(C)c2)c1 [Example 72, 2-Methyl-N-[(1R)-1-[3-(1-methylpyrazol-4-yl)phenyl]ethyl]-5-piperazin-1-yl-benzamide]	79.0	< 2	< 5	–	–
Cc1ccc(N2CCN(C)CC2)cc1C(=O)N[C@H](C)c1cccc(-c2cc(C(=O)N(C)C)n(C)c2)c1 [Example 102, N,N,1-Trimethyl-4-[3-[(1R)-1-[[2-methyl-5-(4-methylpiperazin-1-yl)benzoyl]amino]ethyl]phenyl]pyrrole-2-carboxamide]	75.9	< 2	< 5	–	–
COc1ccc([C@@H](C)NC(=O)c2cc(N3CCN(C)CC3)ccc2C)cc1-c1cnn(C)c1 [Example 205, N-[(1R)-1-[4-Methoxy-3-(1-methylpyrazol-4-yl)phenyl]ethyl]-2-methyl-5-(4-methylpiperazin-1-yl)benzamide]	105.8	< 2	< 5	–	–
COc1ccc([C@@H](C)NC(=O)c2cc(N3CCN(C)CC3)ccc2C)cc1-c1cn(C)nc1C [Example 212, N-[(1R)-1-[3-(1,3-Dimethylpyrazol-4-yl)-4-methoxy-phenyl]ethyl]-2-methyl-5-(4-methylpiperazin-1-yl)benzamide]	96.8	< 2	< 5	–	–
COc1cc(OC)c([C@@H](C)NC(=O)c2cc(N3CCN(C)CC3)ccc2C)cc1-c1cnn(C)c1 [Example 215, N-[(1R)-1-[2,4-Dimethoxy-5-(1-methylpyrazol-4-yl)phenyl]ethyl]-2-methyl-5-(4-methylpiperazin-1-yl)benzamide]	80.1	< 2	< 5	–	–
Cc1ccc(N2CCN(C)CC2)cc1C(=O)N[C@H](C)c1ccc(F)c(-c2cnn(C)c2)c1 [Example 217, N-[(1R)-1-[4-Fluoro-3-(1-methylpyrazol-4-yl)phenyl]ethyl]-2-methyl-5-(4-methylpiperazin-1-yl)benzamide]	61.7	< 2	< 5	–	–
COc1cc(-c2cnn(C)c2)cc([C@@H](C)NC(=O)c2cc(N3CCN(C)CC3)ccc2C)c1 [Example 219, N-[(1R)-1-[3-Methoxy-5-(1-methylpyrazol-4-yl)phenyl]ethyl]-2-methyl-5-(4-methylpiperazin-1-yl)benzamide]	–	< 2	< 5	–	–
CCn1cc(-c2cc(OC)cc([C@@H](C)NC(=O)c3cc(N4CCN(C)CC4)ccc3C)c2)cn1 [Example 220, N-[(1R)-1-[3-(1-Ethylpyrazol-4-yl)-5-methoxy-phenyl]ethyl]-2-methyl-5-(4-methylpiperazin-1-yl)benzamide]	80.7	< 2	< 15	–	–
COc1cc(-c2cnn(C3CC3)c2)cc([C@@H](C)NC(=O)c2cc(N3CCN(C)CC3)ccc2C)c1 [Example 221, N-[(1R)-1-[3-(1-Cyclopropylpyrazol-4-yl)-5-methoxy-phenyl]ethyl]-2-methyl-5-(4-methylpiperazin-1-yl)benzamide]	74.9	< 2	< 5	–	–
COc1ccc([C@@H](C)NC(=O)c2cc(N3C[C@H]4C[C@@H]3CN4C)ccc2C)cc1-c1cnn(C)c1 [Example 227, N-[(1R)-1-[4-Methoxy-3-(1-methylpyrazol-4-yl)phenyl]ethyl]-2-methyl-5-[(1R,4R)-5-methyl-2,5-diazabicyclo[2.2.1]heptan-2-yl]benzamide]	89.9	< 2	< 5	–	–
COc1cc(-c2cn(C)nc2C)cc([C@@H](C)NC(=O)c2cc(N3C[C@H]4C[C@@H]3CN4C)ccc2C)c1 [Example 230, N-[(1R)-1-[3-(1,3-Dimethylpyrazol-4-yl)-5-methoxy-phenyl]ethyl]-2-methyl-5-[(1R,4R)-5-methyl-2,5-diazabicyclo[2.2.1]heptan-2-yl]benzamide]	38.3	< 2	< 5	–	–
COc1cc(-c2cn(C)nc2C)cc([C@@H](C)NC(=O)c2cc(N3CCN(C)CC3)ccc2C)c1 [Example 233, N-[(1R)-1-[3-(1,3-Dimethylpyrazol-4-yl)-5-methoxy-phenyl]ethyl]-2-methyl-5-(4-methylpiperazin-1-yl)benzamide]	88.9	< 2	< 5	–	–
COc1cc(-c2cnn(C)c2)cc([C@@H](C)NC(=O)c2cc(N3CCNCC3)ccc2C)c1 [Example 235, N-[(1R)-1-[3-Methoxy-5-(1-methylpyrazol-4-yl)phenyl]ethyl]-2-methyl-5-piperazin-1-yl-benzamide]	90.6	< 2	< 5	–	–
COc1ccc(-c2cnn(C)c2)cc1[C@@H](C)NC(=O)c1cc(N2CCN(C)CC2)ccc1C [Example 239, N-[(1R)-1-[2-Methoxy-5-(1-methylpyrazol-4-yl)phenyl]ethyl]-2-methyl-5-(4-methylpiperazin-1-yl)benzamide]	101.6	< 2	< 5	–	–
COc1cc(-c2cnn(C)c2)cc([C@@H](C)NC(=O)c2cc(N3C[C@H]4C[C@@H]3CN4C)ccc2C)c1 [Example 244, N-[(1R)-1-[3-Methoxy-5-(1-methylpyrazol-4-yl)phenyl]ethyl]-2-methyl-5-[(1R,4R)-5-methyl-2,5-diazabicyclo[2.2.1]heptan-2-yl]benzamide]	67.1	< 2	< 5	–	–
COc1cc(-c2cnn(C)c2)cc([C@@H](C)NC(=O)c2cc(N3CCN(CC4CC4)CC3)ccc2C)c1 [Example 245, 5-[4-(Cyclopropylmethyl)piperazin-1-yl]-N-[(1R)-1-[3-methoxy-5-(1-methylpyrazol-4-yl)phenyl]ethyl]-2-methyl-benzamide]	58.4	< 2	< 5	–	–
COc1ccc([C@@H](C)NC(=O)c2cc(N3CCN(C)CC3)ccc2C)cc1-c1nccs1 [Example 251, N-[(1R)-1-(4-Methoxy-3-thiazol-2-yl-phenyl)ethyl]-2-methyl-5-(4-methylpiperazin-1-yl)benzamide]	63.2	< 2	< 5	–	–
Cc1ccc(N2CCN(C)CC2)cc1C(=O)N[C@H](C)c1ccc(Cl)c(-c2cnn(C)c2)c1 [Example 252, N-[(1R)-1-[4-Chloro-3-(1-methylpyrazol-4-yl)phenyl]ethyl]-2-methyl-5-(4-methylpiperazin-1-yl)benzamide]	49.4	< 2	< 5	–	–
COc1cc(-c2cnn(C)c2C)cc([C@@H](C)NC(=O)c2cc(N3CCN(C)CC3)ccc2C)c1 [Example 253, N-[(1R)-1-[3-(1,5-Dimethylpyrazol-4-yl)-5-methoxy-phenyl]ethyl]-2-methyl-5-(4-methylpiperazin-1-yl)benzamide hydrochloride salt]	89.3	< 2	< 5	–	–
COc1ccc([C@@H](C)NC(=O)c2cc(N3CCNCC3)ccc2C)cc1-c1cnn(C)c1 [Example 260, N-[(1R)-1-[4-Methoxy-3-(1-methylpyrazol-4-yl)phenyl]ethyl]-2-methyl-5-piperazin-1-yl-benzamide]	91.1	< 2	< 15	–	–
Cc1ccc(N2CCN(C)CC2)cc1C(=O)N[C@H](C)c1cccc(C(=O)N(C)C)c1 [Example 311, N-[(1R)-1-[3-(Dimethylcarbamoyl)phenyl]ethyl]-2-methyl-5-(4-methylpiperazin-1-yl)benzamide]	130.7	< 20	–	–	–
CNC(=O)c1cccc([C@@H](C)NC(=O)c2cc(N3CCN(C)CC3)ccc2C)c1 [Example 312, 2-Methyl-N-[(1R)-1-[3-(methylcarbamoyl)phenyl]ethyl]-5-(4-methylpiperazin-1-yl)benzamide]	78.3	< 10	–	–	–
Cc1ccc(N2CCN(C)CC2)cc1C(=O)N[C@H](C)c1cccc(C#CCO)c1 [Example 315, N-[(1R)-1-[3-(3-Hydroxyprop-1-ynyl)phenyl]ethyl]-2-methyl-5-(4-methylpiperazin-1-yl)benzamide]	122.7	< 5	–	–	–
